Legend:
chemotaxis = settings: cited from earlier work
cp32/D1 = assay: Inhibition of infectivity of mutant RSV strain lacking SH and G proteins, HEp-2 plaque assay; format: cell-based, respiratory syncytial virus (RSV); settings: Table 15 Experiment 2, 10 μg/ml, treated 1 h before infection, 5 days
Experimental: (§1) Virus stocks. Wild type RSV strains A2 and B1 (Wright et al., 1973) and mutant RSV strains cpts248/404 (Ackerlind et al., 1988), rA2 cpts248/404ASH (Crowe et al., 1994) and cp32/D1, deficient in SH and G genes (nucleotides 4064-5462) (Karron et al., 1997), were propagated as previously described (Hancock et al., 1996) in HEp-2 cells (ATCC CCL 23) cultured in complete medium (DMEM supplemented with 2 mM L-glutamine, 2% penicillin/streptomycin and 10% (V/V) FBS, 37° C., 5% CO2). The cp32/D1 mutant was isolated from the B1 strain using methodologies previously described for cp52 (Crowe et al., 1996; Karron et al., 1997). A recombinant RSV, (rA2 cpΔG118) genetically truncated at amino acid 117 of G protein was also used in the investigation. […]
(§2) Inhibition of virus infectivity in vitro. […] Anti-viral activity was also assessed 1 hour after the cells were infected, or following simultaneous exposure of the monolayers to virus in a 1:1 mixture with the indicated doses of chemokines or CCL5 peptides. […]
(§3) Plaque assay. […] Bound antibody was detected using 0.05% 4-chloro-1-naphtol containing 0.1% H2O2 in PBS. After enumeration of plaques, the mean percent infectivity (±1 standard deviation of triplicate wells) was calculated relative to monolayers exposed to virus in culture medium alone without chemokine or anti-chemokine receptor antibody. […]

rA2cpΔ118 = assay: Inhibition of infectivity of RSV with truncated G protein, HEp-2 plaque assay; format: cell-based, respiratory syncytial virus (RSV); settings: Table 15 Experiment 1; strain rA2cpΔ118; 10 μg/ml, treated 1 h before infection; 5 days
Experimental: as §1, §2, §3

HEp-2 cells = assay: Binding of biotinylated CCL5 peptides to HEp-2 cell monolayers (ELISA); set-up: species or system human; settings: FIG. 3, viable HEp-2 cells at 4° C.
Experimental: Interaction of CCL5 peptides with HEp-2 cells. An ELISA was used to assess the relative binding of synthetic peptides to HEp-2 cell monolayers. In brief, 96-well plates (Falcon) were seeded with 3×10^4 HEp-2 cells per well in 0.2 ml of complete medium. After overnight incubation (37° C., 5% CO2), the monolayers were cooled on ice for approximately 15 minutes. The biotinylated peptides were added to duplicate wells in ascending doses from 0.49 μg to 500 μg per ml DMEM (supplemented with 1% FBS, 2% penicillin/streptomycin, and 2 mM L-glutamine) and incubated at 4° C. for 1 hour. The monolayers were then fixed (20 minutes at RT) with 80% methanol (J T Baker; Phillipsburg, N.J.). […] Thereafter, the monolayers were incubated (1 hour at RT) with streptavidin-HRP (Zymed; San Francisco, Calif.). The wells were developed with TMB One-Step Substrate Solution (DAKO; Carpinteria, Calif.). Optical density was determined (450 nm, reference at 550 nm) with a Molecular Devices Versamax microplate reader (Sunnyvale, Calif.).

rA2 cpts248/404ΔSH = assay: Inhibition of infectivity of mutant RSV strain lacking SH protein, HEp-2 plaque assay; format: cell-based, respiratory syncytial virus (RSV); settings: strain 248/404ΔSH, 10 μg/ml, treated 1 h before infection, 5 days
Experimental: (§4) Virus stocks. Wild type RSV strains A2 and B1 (Wright et al., 1973) and mutant RSV strains cpts248/404 (Ackerlind et al., 1988), rA2 cpts248/404ASH (Crowe et al., 1994) and cp32/D1, deficient in SH and G genes (nucleotides 4064-5462) (Karron et al., 1997), were propagated as previously described (Hancock et al., 1996) in HEp-2 cells (ATCC CCL 23) cultured in complete medium (DMEM supplemented with 2 mM L-glutamine, 2% penicillin/streptomycin and 10% (V/V) FBS, 37° C., 5% CO2). The cp32/D1 mutant was isolated from the B1 strain using methodologies previously described for cp52 (Crowe et al., 1996; Karron et al., 1997). A recombinant RSV, (rA2 cpΔG118) genetically truncated at amino acid 117 of G protein was also used in the investigation. All virus stocks were prepared from cell lysates clarified by low speed (200 g) centrifugation 15 minutes at 4° C.
(§5) Inhibition of virus infectivity in vitro. HEp-2 cell monolayers were grown in 96-well tissue culture plates (Falcon, Becton Dickson and Co.; Franklin Lakes, N.J.) with complete medium. The monolayers were pre-treated for 1 hour at 4° C. or 37° C. in triplicate wells with the indicated amounts of recombinant chemokine or anti-chemokine receptor antibody. After removal of chemokine or antibody, the monolayers were infected 1 hour at the same temperature with the denoted wild type or mutant RSV strain and then overlaid with 2% Sephadex (Amersham Biosciences; Piscataway, N.J.). Anti-viral activity was also assessed 1 hour after the cells were infected, or following simultaneous exposure of the monolayers to virus in a 1:1 mixture with the indicated doses of chemokines or CCL5 peptides. […]
as §3

cpts248/404 = assay: Inhibition of infectivity of mutant RSV strain 248/404, HEp-2 plaque assay; format: cell-based, respiratory syncytial virus (RSV); settings: treated 1 h before infection, 5 days
Experimental: as §4, §5
(§6) Plaque assay. […] Bound antibody was detected using 0.05% 4-chloro-1-naphtol containing 0.1% H2O2 in PBS. After enumeration of plaques, the mean percent infectivity (±1 standard deviation of triplicate wells) was calculated relative to monolayers exposed to virus in culture medium alone without chemokine or anti-chemokine receptor antibody.

RSV B1 = assay: Inhibition of infectivity of wild type RSV B1, HEp-2 plaque assay; format: cell-based, respiratory syncytial virus (RSV); settings: Table 15 Experiment 2; strain B1; 10 μg/ml, treated 1 h before infection; 5 days
Experimental: as §1, §2, §6

cp-RSV = assay: Inhibition of infectivity of cp-RSV, HEp-2 plaque assay; format: cell-based, respiratory syncytial virus (RSV); settings: Table 15 Experiment 1; strain cp-RSV; 10 μg/ml, treated 1 h before infection
Experimental: (§7) Inhibition of virus infectivity in vitro. HEp-2 cell monolayers were grown in 96-well tissue culture plates (Falcon, Becton Dickson and Co.; Franklin Lakes, N.J.) with complete medium. The monolayers were pre-treated for 1 hour at 4° C. or 37° C. in triplicate wells with the indicated amounts of recombinant chemokine or anti-chemokine receptor antibody. After removal of chemokine or antibody, the monolayers were infected 1 hour at the same temperature with the denoted wild type or mutant RSV strain and then overlaid with 2% Sephadex (Amersham Biosciences; Piscataway, N.J.). Anti-viral activity was also assessed 1 hour after the cells were infected, or following simultaneous exposure of the monolayers to virus in a 1:1 mixture with the indicated doses of chemokines or CCL5 peptides. The inhibitory properties of the anti-chemokine receptor antibodies were tested alone or in combination at doses ranging from 5 to 100 μg/ml culture medium.
as §6

RSV A2 = assay: Inhibition of RSV infectivity in vitro, plaque assay on HEp-2 cell monolayers; format: cell-based, respiratory syncytial virus (RSV)
Experimental: as §7
Plaque assay. Virus plaques were visualized as previously described (Hancock et al. 1996) using anti-F protein (L4) mAb (Paradiso et al., 1991; Walsh and Hruska, 1983). Thereafter, cells were rinsed with blotto blocking agent (PBS, 5% powdered milk) and incubated with horseradish peroxidase-conjugated goat anti-mouse IgG (Kirkegaard and Perry Laboratories, Inc.; Gaithersburg, Md.). Bound antibody was detected using 0.05% 4-chloro-1-naphtol containing 0.1% H2O2 in PBS. After enumeration of plaques, the mean percent infectivity (±1 standard deviation of triplicate wells) was calculated relative to monolayers exposed to virus in culture medium alone without chemokine or anti-chemokine receptor antibody.

RSV = assay: Inhibition of RSV infection of A549 monolayers; format: cell-based, respiratory syncytial virus (RSV); settings: prior treatment of A549 monolayers; data not shown
[1] = Table 15 Experiment 1, 10 μg/ml
[2] = Table 15 Experiment 1, strain A2, 10 μg/ml, treated 1 h before infection, 3 days

## Ac-YFYEKIHARPLPRAIYAFC-NH2 [SEQ ID NO:19, retroinverted peptide of CCL5 residues 11-29 in reverse order]
chemotaxis
  effect on chemotaxis (in words): antagonized chemotaxis

## CCL5: recombinant human chemokine CCL5 (RANTES), full length polypeptide of SEQ ID NO:1
cp32/D1
  Percent Infectivity: 41%
rA2cpΔ118
  Percent Infectivity: 26%
HEp-2 cells
  binding to the epithelial cell monolayer (in words): readily bound to the epithelial cell monolayer
rA2 cpts248/404ΔSH; Table 15 Experiment 1
  Percent Infectivity: 34%
rA2 cpts248/404ΔSH; Table 15 Experiment 2
  Percent Infectivity: 13%
cpts248/404; [1]
  Percent Infectivity: 28%
cpts248/404; Table 15 Experiment 2, 10 μg/ml
  Percent Infectivity: 25%
RSV B1
  Percent Infectivity: 24%
cp-RSV
  Percent Infectivity: 64%
RSV A2; Table 10, 1 μg/ml, exposed 1 hour before infection, plaques after 3 days
  Percent Infectivity: 73.6 ± 20.6%
RSV A2; Table 10, 5 μg/ml, exposed 1 hour before infection, plaques after 3 days
  Percent Infectivity: 25.0 ± 7.2%
RSV A2; Table 10, 10 μg/ml, exposed 1 hour before infection, plaques after 3 days, relative to control wells (100%)
  Percent Infectivity: 29.2 ± 16.7%
RSV A2; Table 10, 10 μg/ml, exposed 1 hour before infection, plaques after 3 days, relative to control wells (100%), listed as rCCL5
  Percent Infectivity: approximately 30%
RSV A2; Table 11, 1 μg/ml, exposed 1 hour before infection, plaques after 3 days
  Percent Infectivity: 101.0 ± 4.0%
RSV A2; Table 11, 5 μg/ml, exposed 1 hour before infection, plaques after 3 days
  Percent Infectivity: 42.0 ± 3.0%
RSV A2; Table 11, 10 μg/ml, exposed 1 hour before infection, plaques after 3 days
  Percent Infectivity: 16.0 ± 8.0%
RSV A2; Table 11, 10 μg/ml, exposed 1 hour before infection, plaques after 3 days, listed as rCCL5
  Percent Infectivity: ~20%
RSV A2; Table 12, 10 μg/ml, 1 hour after removal of RSV A2 (POST)
  Percent Infectivity: 101 ± 12%
RSV A2; Table 12, 10 μg/ml, 1 hour prior to infection (PRE)
  Percent Infectivity: 22 ± 11%
RSV A2; Table 13, 10 μg/ml, 1 hour prior to infection (PRE)
  Percent Infectivity: 17
RSV A2; Table 13, 10 μg/ml, CCL5 denatured by heat (HEAT)
  Percent Infectivity: 75
RSV A2; Table 13, 10 μg/ml, simultaneously admixed with RSV (SIM)
  Percent Infectivity: 33
RSV A2; Table 14, 5 μg, pre-treated 1 hour at 4° C.
  Percent Infectivity: 37%
RSV A2; Table 14, 5 μg, pre-treated 1 hour at 37° C.
  Percent Infectivity: 41%
RSV A2; Table 14, 10 μg, pre-treated 1 hour at 4° C.
  Percent Infectivity: 23%
RSV A2; Table 14, 10 μg, pre-treated 1 hour at 37° C.
  Percent Infectivity: 4%
RSV A2; Table 14, 20 μg, pre-treated 1 hour at 4° C.
  Percent Infectivity: 14%
RSV A2; Table 14, 20 μg, pre-treated 1 hour at 4° C., listed as rCCL5
  Percent Infectivity: approximately 14%
RSV A2; Table 14, 20 μg, pre-treated 1 hour at 37° C.
  Percent Infectivity: 16%
RSV A2; [2]
  Percent Infectivity: 33%
RSV A2; Table 15 Experiment 2, strain A2, 10 μg/ml, treated 1 h before infection, 3 days
  Percent Infectivity: 28%
RSV A2; prior exposure (1 hour) of HEp-2 cell monolayers, read-out: median inhibitory concentration (IC50)
  IC50: 726 nM
RSV
  inhibition of infection with RSV (in words): inhibited infection with RSV

B1: met-CCL5: CCL5 of SEQ ID NO:1 with a methionine NH2-terminal to Ser1; inactive as chemokine agonist (protein, listed as Homo sapiens)
chain: MSPYSSDTTPCCFAYIARPLPRAHIKEYFYTSGKCSNPAVVFVTRKNRQVCANPEKKWVREYINSLEMS
modifications: N-terminal methionine
rA2cpΔ118
  Percent Infectivity: 41%
rA2 cpts248/404ΔSH; Table 15 Experiment 1
  Percent Infectivity: 32%
cpts248/404; [1]
  Percent Infectivity: 26%
cp-RSV
  Percent Infectivity: 64%
RSV A2; FIG. 1, 1.25 μg met-CCL5/ml, prior treatment
  infectivity, percent of control cells: approximately 80%
RSV A2; FIG. 1, 20 μg met-CCL5/ml, pre-treated one hour before infection
  infectivity, percent of control cells: approximately 25%
RSV A2; FIG. 1, doses of 0.313 or 0.156 μg met-CCL5/ml
  inhibition of infectivity (in words): not inhibitory
RSV A2; [2]
  Percent Infectivity: 31%
